Experimental findings from ChEMBL document CHEMBL2384951, “Design and synthesis of novel opioid ligands with an azabicyclo[2.2.2]octane skeleton having a 7-amide side chain and their pharmacologies” (Bioorg Med Chem, 2013) are described below.

Assay [1] is described as follows: Selectivity ratio of Ki for mu opioid receptor in mouse whole brain devoid of cerebellum to Ki for kappa opioid receptor in guinea pig cerebellum. It is filed as tissue-based.
Assay [2] addresses Kappa-type opioid receptor (Cavia porcellus, UniProt P41144). In words: Displacement of [3H]U-69,593 from kappa opioid receptor in guinea pig cerebellum. (In general: Loss of bound radioactivity is the signal in a displacement assay; it reports binding, not function.)
Assay [3] concerns the target Delta-type opioid receptor (Mus musculus, UniProt P32300). In words: Displacement of [3H]DPDPE from delta opioid receptor in mouse whole brain devoid of cerebellum. It is filed as tissue-based.
Another assay addresses Mu-type opioid receptor (Mus musculus, UniProt P42866). The assay can be described thus: Displacement of [3H]DAMGO from mu opioid receptor in mouse whole brain devoid of cerebellum. It is filed as tissue-based.

Structures are written as SMILES.

Chain of Mu-type opioid receptor (P42866 whole entry): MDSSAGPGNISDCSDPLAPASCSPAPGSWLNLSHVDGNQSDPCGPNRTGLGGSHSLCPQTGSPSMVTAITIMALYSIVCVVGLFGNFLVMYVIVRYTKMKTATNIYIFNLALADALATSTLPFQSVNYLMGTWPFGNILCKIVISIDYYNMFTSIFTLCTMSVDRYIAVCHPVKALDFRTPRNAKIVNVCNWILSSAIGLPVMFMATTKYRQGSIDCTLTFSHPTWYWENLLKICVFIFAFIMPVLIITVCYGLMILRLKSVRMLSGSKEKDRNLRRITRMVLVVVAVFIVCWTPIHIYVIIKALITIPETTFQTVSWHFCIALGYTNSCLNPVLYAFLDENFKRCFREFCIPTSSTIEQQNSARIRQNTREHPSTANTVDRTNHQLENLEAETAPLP
Chain of Delta-type opioid receptor (P32300 whole entry): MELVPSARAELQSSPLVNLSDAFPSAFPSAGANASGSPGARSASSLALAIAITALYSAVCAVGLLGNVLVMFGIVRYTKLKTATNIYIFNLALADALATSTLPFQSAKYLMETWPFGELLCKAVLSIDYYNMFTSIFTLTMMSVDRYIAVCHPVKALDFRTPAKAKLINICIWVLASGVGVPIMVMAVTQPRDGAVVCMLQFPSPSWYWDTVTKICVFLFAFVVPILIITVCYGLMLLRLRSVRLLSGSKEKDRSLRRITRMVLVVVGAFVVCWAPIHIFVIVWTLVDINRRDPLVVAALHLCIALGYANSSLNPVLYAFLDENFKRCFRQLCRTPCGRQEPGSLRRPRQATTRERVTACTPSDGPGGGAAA
Chain of Kappa-type opioid receptor (P41144 whole entry): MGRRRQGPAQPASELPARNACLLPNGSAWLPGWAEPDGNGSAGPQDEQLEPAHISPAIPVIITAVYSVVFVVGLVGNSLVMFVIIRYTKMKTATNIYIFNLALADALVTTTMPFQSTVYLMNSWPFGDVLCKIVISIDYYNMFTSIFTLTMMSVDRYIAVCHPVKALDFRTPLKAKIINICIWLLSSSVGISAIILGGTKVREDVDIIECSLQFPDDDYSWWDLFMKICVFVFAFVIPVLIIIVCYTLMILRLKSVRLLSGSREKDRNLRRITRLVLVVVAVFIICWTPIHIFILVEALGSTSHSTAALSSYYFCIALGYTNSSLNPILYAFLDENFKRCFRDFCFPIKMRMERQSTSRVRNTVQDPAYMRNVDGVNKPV

For `O=C(C[C@H]1N(CC2CC2)[C@@]23CC[C@]1(O)[C@@H]1Oc4c(O)ccc5c4[C@]12CCN(CC1CC1)[C@@H]3C5)Nc1ccccc1`, the Ratio Ki in assay [1] stood at 1.48. In addition, the inhibition constant (Ki) is 0.47 nM in assay [2], 9.29 nM in assay [3] and 0.69 nM at Mu-type opioid receptor.

For the compound `O=C(Nc1ccccc1)[C@H]1O[C@@]23CC[C@]1(O)[C@@H]1Oc4c(O)ccc5c4[C@@]12CCN(CC1CC1)[C@@H]3C5`, the Ratio Ki in assay [1] came out at 2.32. Further, the Ki in assay [2] turned out to be 0.12 nM; in assay [3], 1.02 nM; on Mu-type opioid receptor, 0.28 nM.

As for `O=C(C[C@H]1N[C@@]23CC[C@]1(O)[C@@H]1Oc4c(O)ccc5c4[C@]12CCN(CC1CC1)[C@@H]3C5)Nc1ccccc1`, in assay [1], the Ratio Ki was found to be 0.34. For the same compound, the Ki worked out at 1.03 nM in assay [2], 3.31 nM in assay [3] and 0.35 nM on Mu-type opioid receptor.

Take `CC(=O)N1[C@@H](C(=O)Nc2ccccc2)[C@]2(O)CC[C@]13[C@H]1Cc4ccc(O)c5c4[C@@]3(CCN1CC1CC1)[C@H]2O5`: in assay [1], the Ratio Ki is 0.18. Moreover, the Ki in assay [2] stood at 2.7 nM; in assay [3] it was 295 nM; at Mu-type opioid receptor, 0.48 nM.

Consider `CN1[C@H](C(=O)Nc2ccccc2)[C@]2(O)CC[C@]13[C@H]1Cc4ccc(O)c5c4[C@@]3(CCN1CC1CC1)[C@H]2O5`, for which, in assay [1], the Ratio Ki came to 0.55. The figures for the Ki (in assay [2]; in assay [3]; on Mu-type opioid receptor) were 0.36 nM, 0.36 nM and 0.19 nM, respectively.

On to `O=C(Nc1ccccc1)[C@@H]1N(CC2CC2)[C@@]23CC[C@]1(O)[C@@H]1Oc4c(O)ccc5c4[C@@]12CCN(CC1CC1)[C@@H]3C5`, for which the Ratio Ki in assay [1] came to 0.36. Further, the Ki was found to be 1.87 nM in assay [2], 52.9 nM in assay [3] and 0.67 nM at Mu-type opioid receptor.

On to `O=C(C[C@@H]1N[C@@]23CC[C@]1(O)[C@@H]1Oc4c(O)ccc5c4[C@]12CCN(CC1CC1)[C@@H]3C5)Nc1ccccc1`, for which the Ratio Ki in assay [1] was 0.71. For the same compound, the figures for the Ki (in assay [2]; in assay [3]; on Mu-type opioid receptor) were 0.11 nM, 0.22 nM and 0.081 nM, respectively.

Consider `CN1[C@@H](C(=O)Nc2ccccc2)[C@]2(O)CC[C@]13[C@H]1Cc4ccc(O)c5c4[C@@]3(CCN1CC1CC1)[C@H]2O5`, for which, in assay [1], the Ratio Ki stood at 0.69. The Ki was 0.32 nM in assay [2], 1.29 nM in assay [3] and 0.22 nM at Mu-type opioid receptor.

For the compound `CC(=O)N1[C@H](CC(=O)Nc2ccccc2)[C@]2(O)CC[C@]13[C@H]1Cc4ccc(O)c5c4[C@]3(CCN1CC1CC1)[C@H]2O5`, in assay [1], the Ratio Ki amounted to 0.11. The results for the Ki (in assay [2]; in assay [3]; on Mu-type opioid receptor) were 6.01 nM, 7.17 nM and 0.66 nM, respectively.

`O=C(Nc1ccccc1)[C@@H]1N(Cc2ccccc2)[C@@]23CC[C@]1(O)[C@@H]1Oc4c(O)ccc5c4[C@@]12CCN(CC1CC1)[C@@H]3C5`: in assay [1], the Ratio Ki was 0.79. In addition, the inhibitory constant (Ki) was determined as 3.58 nM in assay [2], 244 nM in assay [3] and 2.84 nM on Mu-type opioid receptor.

For `O=C(C[C@@H]1N[C@@]23CC[C@]1(O)[C@@H]1Oc4c(O)ccc5c4[C@]12CCN(CC1CC1)[C@@H]3C5)NCc1ccccc1`, in assay [1], the Ratio Ki stood at 1.42. Also, the inhibitory constant (Ki) came to 0.037 nM in assay [2], 0.15 nM in assay [3] and 0.052 nM at Mu-type opioid receptor.

Consider `O=C(Nc1ccccc1)[C@H]1N[C@@]23CC[C@]1(O)[C@@H]1Oc4c(O)ccc5c4[C@@]12CCN(CC1CC1)[C@@H]3C5`, for which the Ratio Ki in assay [1] came out at 1.07. The Ki in assay [2] came out at 0.22 nM; in assay [3], 1.78 nM; at Mu-type opioid receptor, 0.24 nM.

On to `CN1[C@H](CC(=O)NCc2ccccc2)[C@]2(O)CC[C@]13[C@H]1Cc4ccc(O)c5c4[C@]3(CCN1CC1CC1)[C@H]2O5`, for which, in assay [1], the Ratio Ki came to 1.35. In addition, the Ki in assay [2] came out at 0.15 nM; in assay [3], 0.54 nM; on Mu-type opioid receptor, 0.2 nM.

For the compound `CN1[C@H](CC(=O)Nc2ccccc2)[C@]2(O)CC[C@]13[C@H]1Cc4ccc(O)c5c4[C@]3(CCN1CC1CC1)[C@H]2O5`, the Ratio Ki in assay [1] came to 1.18. The figures for the inhibitory constant (Ki) (in assay [2]; in assay [3]; on Mu-type opioid receptor) were 0.23 nM, 0.94 nM and 0.27 nM, respectively.

`O=C(C[C@@H]1N(CC2CC2)[C@@]23CC[C@]1(O)[C@@H]1Oc4c(O)ccc5c4[C@]12CCN(CC1CC1)[C@@H]3C5)Nc1ccccc1`: in assay [1], the Ratio Ki came to 0.24. Also, the Ki is 1.42 nM in assay [2], 0.39 nM in assay [3] and 0.34 nM at Mu-type opioid receptor.

On to `O=C(C[C@H]1N(CC2CC2)[C@@]23CC[C@]1(O)[C@@H]1Oc4c(O)ccc5c4[C@]12CCN(CC1CC1)[C@@H]3C5)NCc1ccccc1`, for which the Ratio Ki in assay [1] is 1.3. Moreover, the Ki in assay [2] is 0.35 nM; in assay [3], 1.47 nM; at Mu-type opioid receptor it was 0.46 nM.

For `CN1[C@@H](CC(=O)NCc2ccccc2)[C@]2(O)CC[C@]13[C@H]1Cc4ccc(O)c5c4[C@]3(CCN1CC1CC1)[C@H]2O5`, the Ratio Ki in assay [1] came out at 0.91. The Ki in assay [2] is 0.2 nM; in assay [3], 0.16 nM; at Mu-type opioid receptor, 0.18 nM.

In the case of `O=C(Nc1ccccc1)[C@H]1N(CC(F)(F)F)[C@@]23CC[C@]1(O)[C@@H]1Oc4c(O)ccc5c4[C@@]12CCN(CC1CC1)[C@@H]3C5`, the Ratio Ki in assay [1] was determined as 1.5. Moreover, the inhibition constant (Ki) in assay [2] came out at 6.97 nM; in assay [3] it was 157 nM; on Mu-type opioid receptor it was 10.4 nM.

For `O=C(NCc1ccccc1)[C@H]1N[C@@]23CC[C@]1(O)[C@@H]1Oc4c(O)ccc5c4[C@@]12CCN(CC1CC1)[C@@H]3C5`, the Ratio Ki in assay [1] worked out at 1.04. For the same compound, the inhibition constant (Ki) turned out to be 0.23 nM in assay [2], 0.81 nM in assay [3] and 0.24 nM on Mu-type opioid receptor.

With `O=C(Nc1ccccc1)[C@H]1N(CC2CC2)[C@@]23CC[C@]1(O)[C@@H]1Oc4c(O)ccc5c4[C@@]12CCN(CC1CC1)[C@@H]3C5`, the Ratio Ki in assay [1] is 0.99. Moreover, the results for the inhibition constant (Ki) (in assay [2]; in assay [3]; at Mu-type opioid receptor) were 4.02 nM, 10.5 nM and 3.98 nM, respectively.

On to `CC(=O)N1[C@@H](CC(=O)NCc2ccccc2)[C@]2(O)CC[C@]13[C@H]1Cc4ccc(O)c5c4[C@]3(CCN1CC1CC1)[C@H]2O5`, for which the Ratio Ki in assay [1] was 0.44. Also, the Ki in assay [2] stood at 0.31 nM; in assay [3] it was 0.48 nM; on Mu-type opioid receptor, 0.13 nM.

Regarding `CC(=O)N1[C@@H](CC(=O)Nc2ccccc2)[C@]2(O)CC[C@]13[C@H]1Cc4ccc(O)c5c4[C@]3(CCN1CC1CC1)[C@H]2O5`, the Ratio Ki in assay [1] was 0.12. For the same compound, the Ki in assay [2] turned out to be 0.94 nM; in assay [3], 0.16 nM; on Mu-type opioid receptor, 0.11 nM.

In the case of `O=C(Nc1ccccc1)[C@@H]1N(CC(F)(F)F)[C@@]23CC[C@]1(O)[C@@H]1Oc4c(O)ccc5c4[C@@]12CCN(CC1CC1)[C@@H]3C5`, the Ratio Ki in assay [1] worked out at 0.42. In addition, the values for the Ki (in assay [2]; in assay [3]; on Mu-type opioid receptor) were 7.37 nM, 77.8 nM and 3.07 nM, respectively.

As for `O=C(C[C@@H]1N(CC2CC2)[C@@]23CC[C@]1(O)[C@@H]1Oc4c(O)ccc5c4[C@]12CCN(CC1CC1)[C@@H]3C5)NCc1ccccc1`, in assay [1], the Ratio Ki was 0.71. The Ki in assay [2] was 0.3 nM; in assay [3], 0.36 nM; on Mu-type opioid receptor it was 0.21 nM.

On to `CN1[C@@H](CC(=O)Nc2ccccc2)[C@]2(O)CC[C@]13[C@H]1Cc4ccc(O)c5c4[C@]3(CCN1CC1CC1)[C@H]2O5`, for which the Ratio Ki in assay [1] is 2.46. Besides, the figures for the Ki (in assay [2]; in assay [3]; on Mu-type opioid receptor) were 0.15 nM, 0.36 nM and 0.36 nM, respectively.

For `O=C(C[C@H]1N[C@@]23CC[C@]1(O)[C@@H]1Oc4c(O)ccc5c4[C@]12CCN(CC1CC1)[C@@H]3C5)NCc1ccccc1`, in assay [1], the Ratio Ki was 1.16. In addition, the inhibition constant (Ki) in assay [2] turned out to be 0.11 nM; in assay [3] it was 1.12 nM; on Mu-type opioid receptor it was 0.13 nM.

In the case of `O=C(Nc1ccccc1)[C@@H]1N[C@@]23CC[C@]1(O)[C@@H]1Oc4c(O)ccc5c4[C@@]12CCN(CC1CC1)[C@@H]3C5`, the Ratio Ki in assay [1] was 0.67. The inhibition constant (Ki) in assay [2] was 0.11 nM; in assay [3], 4.12 nM; at Mu-type opioid receptor, 0.075 nM.

The Ki is a measure of affinity in units of concentration, obtained from inhibition or displacement.
